The source of these data is US20200093814A1, “COMBINATION THERAPY WITH AMIDINE SUBSTITUTED BETA-LACTAM COMPOUNDS AND BETA-LACTAMASE INHIBITORS FOR INFECTIONS WITH ANTIBIOTIC RESISTANT BACTERIAL STRAINS” (AiCuris GmbH & Co. KG, priority 2016, published 2020).

What all share (format): cell-based
What all share (conditions): BLI where combined at 4 μg/mL

For one test, the system named is E. coli 121 (CTX-M). Description: MIC determination, broth microdilution (CLSI). From the text: (§1) While the compounds of this invention were serially diluted as described above, a constant concentration of the β-lactamase inhibitor of […] was used.
Another test concerns E. coli 72 (CTX-M). Description: MIC determination, broth microdilution (CLSI).
Excerpt: as §1
On the technique in general: Broth dilution looks for growth in wells or tubes with falling amounts of substance.

The test system of a further test is K. pneumoniae 79 (CTX-M). The experiment in a line: MIC determination, broth microdilution (CLSI).
Excerpt: as §1

Test [1] concerns E. coli J62-TEM-3 transconjugant (TEM-3). Description: MIC determination, broth microdilution (CLSI).
Excerpt: as §1

Test [2] relates to E. coli 17 (CTX-M, CMY-2). Description: MIC determination, broth microdilution (CLSI).
Excerpt: as §1

The next test relates to E. coli 128 (SHV-2a). The experiment in a line: MIC determination, broth microdilution (CLSI).
Excerpt: as §1

A further test relates to E. coli 10 (TEM-20). The experiment in a line: MIC determination, broth microdilution (CLSI).
Excerpt: as §1

The test system of test [3] is E. coli DSM 22315 (VEB-1). Description: MIC determination, broth microdilution (CLSI).
Excerpt: as §1

For test [4], the system named is K. pneumoniae NRZ-15601 (OXA-48, SHV-12). Description: MIC determination, broth microdilution (CLSI).
Excerpt: as §1

Test [5] deals with K. pneumoniae 16/10 (OXA-48, CTX-M-15). The experiment in a line: MIC determination, broth microdilution (CLSI).
Excerpt: as §1

The test system of the next test is K. pneumoniae 68 (SHV-5). Description: MIC determination, broth microdilution (CLSI).
Excerpt: as §1

For test [6], the system named is E. cloacae 58 (SHV-12, de-repressed AmpC).
The subject of test [7] is K. pneumoniae NCTC 13440 (VIM-1, SHV-12). Description: MIC determination, broth microdilution (CLSI).
Excerpt: as §1

Broadly, the MIC is the lowest concentration that inhibits growth of the organism. Turning to `CC(C)(O/N=C(\C(=O)N[C@@H]1C(=O)N2C(C(=O)[O-])=C(C[n+]3ccccc3)CS[C@H]12)c1csc(N)n1)C(=O)O` [ceftazidime], the MIC with E. coli 121 (CTX-M) stood at 32 µg/mL; with E. coli 72 (CTX-M) it was 32 µg/mL; in the test with K. pneumoniae 79 (CTX-M), 16 µg/mL; in test [1], 16 µg/mL; in [2], 128 µg/mL; in the test on E. coli 128 (SHV-2a) it was 16 µg/mL. In addition, the MIC in the test on E. coli 10 (TEM-20) is 32 µg/mL; in [3] it was 128 µg/mL; in test [4] it was 64 µg/mL; in test [5], 128 µg/mL; in the test with K. pneumoniae 68 (SHV-5), 64 µg/mL; in test [6] it was 128 µg/mL.
For aztreonam, the MIC in the test with E. coli 121 (CTX-M) stood at 64 µg/mL; with E. coli 72 (CTX-M), 128 µg/mL; with K. pneumoniae 79 (CTX-M), 32 µg/mL; in test [1], 8 µg/mL; in test [2], 128 µg/mL; in the test with E. coli 128 (SHV-2a), 8 µg/mL. In addition, the MIC was determined as 64 µg/mL with E. coli 10 (TEM-20), 64 µg/mL in test [3], 128 µg/mL in test [7] and 128 µg/mL with K. pneumoniae 68 (SHV-5).
